From patent publication US6737383B1, “Herbicidal oxadiazolidines” (priority 1999, dated 2004)

Tests used:
bamyardgrass = assay: Test B flood test barnyardgrass; assay type: in vivo, Echinochloa crus-galli
In short: (§1)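 Plants were grown to the 2-leaf stage before treatment with test chemical, then held in a greenhouse for twelve to sixteen days. Injury was visually rated against untreated controls on a 0–10 scale, where 0 is no effect and 10 is complete control.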

soybean = assay: Test B pre/postemergence soybean; assay type: in vivo, Glycine max
In short: (§2)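 Test chemicals in a non-phytotoxic solvent mixture with surfactant were sprayed preemergence onto planted seeds and postemergence onto plants 2 to 18 cm tall (1- to 4-leaf stage). After twelve to sixteen days in a greenhouse, injury was visually rated against untreated controls from 0 (no effect) to 10 (complete control).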

rice = assay: Test B flood test rice; assay type: in vivo, Oryza sativa
In short: as §1

purple nutsedge = assay: Test B pre/postemergence purple nutsedge; assay type: in vivo, Cyperus rotundus
In short: as §2

corn = assay: Test B pre/postemergence corn; assay type: in vivo, Zea mays
In short: as §2

sugar beet = assay: Test B pre/postemergence sugar beet; assay type: in vivo, Beta vulgaris
In short: as §2

giant foxtail = assay: Test B pre/postemergence giant foxtail; assay type: in vivo, Setaria faberii
In short: as §2

pigweed = assay: Test B pre/postemergence pigweed; assay type: in vivo, Amaranthus retroflexus
In short: as §2

rape = assay: Test B pre/postemergence rape; assay type: in vivo, Brassica napus
In short: as §2

velvetleaf = assay: Test B pre/postemergence velvetleaf; assay type: in vivo, Abutilon theophrasti
In short: as §2

duck salad = assay: Test B flood test duck salad; assay type: in vivo, Heteranthera limosa
In short: as §1

crabgrass = assay: Test B pre/postemergence crabgrass; assay type: in vivo, Digitaria sanguinalis
In short: as §2

wheat = assay: Test B pre/postemergence wheat; assay type: in vivo, Triticum aestivum
In short: as §2

wild oat = assay: Test B pre/postemergence wild oat; assay type: in vivo, Avena fatua
In short: as §2

morningglory = assay: Test B pre/postemergence morningglory; assay type: in vivo, Ipomoea hederacea
In short: as §2

cocklebur = assay: Test B pre/postemergence cocklebur; assay type: in vivo, Xanthium strumarium
In short: as §2

[1] = Rate 62 g/ha, headed Pre-emergence (flood test species), scale 0 to 10 (0 no effect, 10 complete control)
[2] = Rate 125 g/ha, Pre-emergence, flood test species, scale 0 to 10 where 0 is no effect and 10 is complete control
[3] = Rate 250 g/ha, Pre-emergence, flood-test species, scale 0 to 10, 0 is no effect, 10 is complete control
[4] = Rate 500 g/ha, headed Pre-emergence (flood test species), scale 0 to 10 (0 no effect, 10 complete control)
[5] = Preemergence, Rate 62 g/ha, scale of 0 to 10 where 0 is no effect and 10 is complete control
[6] = Preemergence, Rate 125 g/ha, 0 is no effect, 10 is complete control
[7] = Preemergence, Rate 250 g/ha, scale 0 to 10, 0 is no effect, 10 is complete control
[8] = Preemergence, Rate 500 g/ha, scale of 0 to 10 where 0 is no effect and 10 is complete control
[9] = Rate 62 g/ha, Postemergence, scale of 0 to 10 where 0 is no effect and 10 is complete control
[10] = Rate 125 g/ha, Postemergence, scale 0 to 10
[11] = Rate 500 g/ha, Postemergence, scale 0 to 10

Cc1ccccc1-n1c(=O)on(C(=O)N(c2ccc(S(C)(=O)=O)cc2)C(C)C)c1=O [Compound 203]
0: Barnyardgrass plant response rating (bamyardgrass; [1]) | Barnyardgrass plant response rating (bamyardgrass; [2]) | Barnyardgrass plant response rating (bamyardgrass; [3]) | Plant response rating, Barnyardgrass (bamyardgrass; [4]) | Soybean plant response rating (soybean; [5]) | Soybean plant response rating (0 to 10 scale) (soybean; [6]) | Soybean plant response rating (soybean; [7]) | Plant response rating, Soybean (soybean; [8]) | Soybean plant response rating (soybean; [9]) | Soybean plant response rating (soybean; [10]) | Plant response rating (0 to 10; 0 is no effect, 10 is complete control), Soybean (soybean; Rate 250 g/ha, Postemergence) | Soybean plant response rating (soybean; [11]) | Rice plant response rating (rice; [1]) | Rice plant response rating (rice; [2]) | Rice plant response rating (rice; [3]) | Plant response rating, Rice (rice; [4]) | Nutsedge plant response rating (purple nutsedge; [5]) | Nutsedge plant response rating (0 to 10 scale) (purple nutsedge; [6]) | Nutsedge plant response rating (purple nutsedge; [7]) | Plant response rating, Nutsedge (purple nutsedge; [8]) | Nutsedge plant response rating (purple nutsedge; [9]) | Nutsedge plant response rating (purple nutsedge; [10]) | Plant response rating (0 to 10; 0 is no effect, 10 is complete control), Nutsedge (purple nutsedge; Rate 250 g/ha, Postemergence) | Nutsedge plant response rating (purple nutsedge; [11]) | Corn plant response rating (corn; [5]) | Corn plant response rating (0 to 10 scale) (corn; [6]) | Corn plant response rating (corn; [7]) | Plant response rating, Corn (corn; [8]) | Corn plant response rating (corn; [9]) | Corn plant response rating (corn; [10]) | Plant response rating (0 to 10; 0 is no effect, 10 is complete control), Corn (corn; Rate 250 g/ha, Postemergence) | Corn plant response rating (corn; [11]) | Sugarbeets plant response rating (sugar beet; [5]) | Sugarbeets plant response rating (0 to 10 scale) (sugar beet; [6]) | Sugarbeets plant response rating (sugar beet; [7]) | Plant response rating, Sugarbeets (sugar beet; [8]) | Sugarbeets plant response rating (sugar beet; [9]) | Sugarbeets plant response rating (sugar beet; [10]) | Plant response rating (0 to 10; 0 is no effect, 10 is complete control), Sugarbeets (sugar beet; Rate 250 g/ha, Postemergence) | Sugarbeets plant response rating (sugar beet; [11]) | Giant foxtail plant response rating (giant foxtail; [5]) | Giant foxtail plant response rating (0 to 10 scale) (giant foxtail; [6]) | Giant foxtail plant response rating (giant foxtail; [7]) | Plant response rating, Giant foxtail (giant foxtail; [8]) | Giant foxtail plant response rating (giant foxtail; [9]) | Giant foxtail plant response rating (giant foxtail; [10]) | Plant response rating (0 to 10; 0 is no effect, 10 is complete control), Giant foxtail (giant foxtail; Rate 250 g/ha, Postemergence) | Giant foxtail plant response rating (giant foxtail; [11]) | Redroot pigweed plant response rating (pigweed; [5]) | Redroot pigweed plant response rating (0 to 10 scale) (pigweed; [6]) | Redroot pigweed plant response rating (pigweed; [7]) | Plant response rating, Redroot pigweed (pigweed; [8]) | Redroot pigweed plant response rating (pigweed; [9]) | Redroot pigweed plant response rating (pigweed; [10]) | Plant response rating (0 to 10; 0 is no effect, 10 is complete control), Redroot pigweed (pigweed; Rate 250 g/ha, Postemergence) | Redroot pigweed plant response rating (pigweed; [11]) | Rape plant response rating (rape; [5]) | Rape plant response rating (0 to 10 scale) (rape; [6]) | Rape plant response rating (rape; [7]) | Plant response rating, Rape (rape; [8]) | Rape plant response rating (rape; [9]) | Rape plant response rating (rape; [10]) | Plant response rating (0 to 10; 0 is no effect, 10 is complete control), Rape (rape; Rate 250 g/ha, Postemergence) | Rape plant response rating (rape; [11]) | Velvetleaf plant response rating (velvetleaf; [5]) | Velvetleaf plant response rating (velvetleaf; [7]) | Plant response rating, Velvetleaf (velvetleaf; [8]) | Velvetleaf plant response rating (velvetleaf; [9]) | Velvetleaf plant response rating (velvetleaf; [10]) | Plant response rating (0 to 10; 0 is no effect, 10 is complete control), Velvetleaf (velvetleaf; Rate 250 g/ha, Postemergence) | Ducksalad plant response rating (duck salad; [1]) | Ducksalad plant response rating (duck salad; [2]) | Ducksalad plant response rating (duck salad; [3]) | Plant response rating, Ducksalad (duck salad; [4]) | Crabgrass plant response rating (crabgrass; [5]) | Crabgrass plant response rating (0 to 10 scale) (crabgrass; [6]) | Crabgrass plant response rating (crabgrass; [7]) | Plant response rating, Crabgrass (crabgrass; [8]) | Crabgrass plant response rating (crabgrass; [9]) | Crabgrass plant response rating (crabgrass; [10]) | Plant response rating (0 to 10; 0 is no effect, 10 is complete control), Crabgrass (crabgrass; Rate 250 g/ha, Postemergence) | Crabgrass plant response rating (crabgrass; [11]) | Wheat plant response rating (wheat; [5]) | Wheat plant response rating (wheat; [7]) | Plant response rating, Wheat (wheat; [8]) | Wheat plant response rating (wheat; [9]) | Wheat plant response rating (wheat; [10]) | Plant response rating (0 to 10; 0 is no effect, 10 is complete control), Wheat (wheat; Rate 250 g/ha, Postemergence) | Wild oats plant response rating (wild oat; [5]) | Wild oats plant response rating (wild oat; [7]) | Plant response rating, Wild oats (wild oat; [8]) | Wild oats plant response rating (wild oat; [9]) | Wild oats plant response rating (wild oat; [10]) | Plant response rating (0 to 10; 0 is no effect, 10 is complete control), Wild oats (wild oat; Rate 250 g/ha, Postemergence) | Morningglory plant response rating (morningglory; [5]) | Morningglory plant response rating (0 to 10 scale) (morningglory; [6]) | Morningglory plant response rating (morningglory; [7]) | Plant response rating, Morningglory (morningglory; [8]) | Morningglory plant response rating (morningglory; [9]) | Morningglory plant response rating (morningglory; [10]) | Plant response rating (0 to 10; 0 is no effect, 10 is complete control), Morningglory (morningglory; Rate 250 g/ha, Postemergence) | Morningglory plant response rating (morningglory; [11]) | Cocklebur plant response rating (cocklebur; [5]) | Cocklebur plant response rating (0 to 10 scale) (cocklebur; [6]) | Cocklebur plant response rating (cocklebur; [7]) | Plant response rating, Cocklebur (cocklebur; [8]) | Cocklebur plant response rating (cocklebur; [9]) | Cocklebur plant response rating (cocklebur; [10]) | Plant response rating (0 to 10; 0 is no effect, 10 is complete control), Cocklebur (cocklebur; Rate 250 g/ha, Postemergence) | Cocklebur plant response rating (cocklebur; [11])
